# Assay results taken from patent US10329268B2, “Processes for preparing medicaments for the treatment of cardiovascular diseases and intermediates for use therein” (Bial-Portela & CA., S.A., priority 2013, dated 2019).
# Legend:
# [1] = Solubility in organic solvents according to Eur. Ph. Chapter 5.11; type: physicochemical
# Procedure: The solubility of non-micronized and micronized (R)-5-(2-(benzylamino)ethyl)-1-(6,8-difluorochroman-3-yl)-1H-imidazole-2(3H)-thione in several organic solvents was determined.
# Solubility Solubility was evaluated according to Eur. Ph. Chapter 5.11 at room temperature.
# The following descriptions are used to describe the degree of solubility: […]
# [2] = Aqueous solubility at 37° C. in solutions of pH 1.2 to 9.0; type: physicochemical
# Procedure: The aqueous solubility of (R)-5-(2-(benzylamino)ethyl)-1-(6,8-difluorochroman-3-yl)-1H-imidazole-2(3H)-thione was determined in triplicate at 37° C. Aqueous solutions of HCl (pH 1.2, 2.0, 3.0), potassium chloride (pH 1.2, 2.0), acid phthalate (pH 3.0), acetate (pH 4.5, 5.5), phosphate (pH 7.4) and boric acid (pH 9.0) were tested.
# [3] = biological target: T1, dopamine-β-hydroxylase (Homo sapiens, UniProt P09172); conditions: background statement, WO2004/033447 / WO2008/136695; cited from earlier work
# T1 sequence (P09172 1-617): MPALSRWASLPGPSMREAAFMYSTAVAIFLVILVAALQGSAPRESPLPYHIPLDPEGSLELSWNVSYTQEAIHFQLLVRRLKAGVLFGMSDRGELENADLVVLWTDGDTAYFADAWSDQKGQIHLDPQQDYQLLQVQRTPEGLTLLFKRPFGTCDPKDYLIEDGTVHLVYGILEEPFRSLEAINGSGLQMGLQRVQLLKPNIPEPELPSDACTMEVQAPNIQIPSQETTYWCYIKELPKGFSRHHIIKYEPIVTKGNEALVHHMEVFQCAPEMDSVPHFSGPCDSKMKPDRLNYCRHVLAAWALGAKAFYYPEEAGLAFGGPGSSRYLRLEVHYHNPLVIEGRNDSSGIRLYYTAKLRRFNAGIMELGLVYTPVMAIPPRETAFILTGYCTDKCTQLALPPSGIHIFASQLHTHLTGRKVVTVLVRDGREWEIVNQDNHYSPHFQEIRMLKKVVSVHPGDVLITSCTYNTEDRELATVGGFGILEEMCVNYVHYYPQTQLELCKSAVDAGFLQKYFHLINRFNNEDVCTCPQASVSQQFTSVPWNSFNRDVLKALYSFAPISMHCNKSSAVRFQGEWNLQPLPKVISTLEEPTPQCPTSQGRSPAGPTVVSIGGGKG
# [4] = background statement; cited from earlier work
compound,measurement,setting,value
"Fc1cc(F)c2c(c1)C[C@@H](n1c(CCNCc3ccccc3)c[nH]c1=S)CO2 [(R)-5-(2-(benzylamino)ethyl)-1-(6,8-difluorochroman-3-yl)-1H-imidazole-2(3H)-thione]",Solubility in polar organic aprotic solvents,[1]; all of the polar organic aprotic solvents tested,"either sparingly soluble, slightly soluble or very slightly soluble"
same,Solubility description,"[1]; micronized particles, 1,4-Dioxane, room temperature","Very slightly soluble (from 1000 to 10,000 parts)"
same,Solubility description,"[1]; micronized particles, 2-propanol, room temperature",Insoluble
same,Solubility description,"[1]; micronized particles, Absolute ethanol, room temperature","Very slightly soluble (from 1000 to 10,000 parts)"
same,Solubility description,"[1]; micronized particles, Acetone, room temperature",Slightly soluble (from 100 to 1000 parts)
same,Solubility description,"[1]; micronized particles, Acetonitrile, room temperature","Very slightly soluble (from 1000 to 10,000 parts)"
same,Solubility description,"[1]; micronized particles, Chloroform, room temperature",Slightly soluble (from 100 to 1000 parts)
same,Solubility description,"[1]; micronized particles, Cyclohexane, room temperature",Insoluble
same,Solubility description,"[1]; micronized particles, DMSO, room temperature",Slightly soluble (from 100 to 1000 parts)
same,Solubility description,"[1]; micronized particles, Dichloromethane, room temperature","Very slightly soluble (from 1000 to 10,000 parts)"
same,Solubility description,"[1]; micronized particles, Dimethylformamide, room temperature",Sparingly soluble (from 30 to 100 parts)
same,Solubility description,"[1]; micronized particles, Ethyl acetate, room temperature","Very slightly soluble (from 1000 to 10,000 parts)"
same,Solubility description,"[1]; micronized particles, Iso-octane (2,2,4-trimethylpentane), room temperature","Practically insoluble (greater than or equal to 10,000 parts)"
same,Solubility description,"[1]; micronized particles, Methanol or acetonitrile acidified with 0.1% formic acid or TFA, room temperature",Slightly soluble (from 100 to 1000 parts)
same,Solubility description,"[1]; micronized particles, Methanol, room temperature","Very slightly soluble (from 1000 to 10,000 parts)"
same,Solubility description,"[1]; micronized particles, Methyl ethyl ketone, room temperature",Slightly soluble (from 100 to 1000 parts)
same,Solubility description,"[1]; micronized particles, N,N-methylpirrolidone, room temperature",Sparingly soluble (from 30 to 100 parts)
same,Solubility description,"[1]; micronized particles, Tetrahydrofuran, room temperature",Sparingly soluble (from 30 to 100 parts)
same,Solubility in polar organic solvents,[1]; most of the polar organic solvents tested,"mostly either sparingly soluble, slightly soluble or very slightly soluble"
same,Solubility description,"[1]; non-micronized particles, 1,4-Dioxane, room temperature",Slightly soluble (from 100 to 1000 parts)
same,Solubility description,"[1]; non-micronized particles, 2-propanol, room temperature",Insoluble
same,Solubility description,"[1]; non-micronized particles, Absolute ethanol, room temperature","Practically insoluble (greater than or equal to 10,000 parts)"
same,Solubility description,"[1]; non-micronized particles, Acetone, room temperature",Slightly soluble (from 100 to 1000 parts)
same,Solubility description,"[1]; non-micronized particles, Acetonitrile, room temperature","Very slightly soluble (from 1000 to 10,000 parts)"
same,Solubility description,"[1]; non-micronized particles, Chloroform, room temperature","Very slightly soluble (from 1000 to 10,000 parts)"
same,Solubility description,"[1]; non-micronized particles, Cyclohexane, room temperature",Insoluble
same,Solubility description,"[1]; non-micronized particles, DMSO, room temperature",Sparingly soluble (from 30 to 100 parts)
same,Solubility description,"[1]; non-micronized particles, Dichloromethane, room temperature",Slightly soluble (from 100 to 1000 parts)
same,Solubility description,"[1]; non-micronized particles, Dimethylformamide, room temperature",Sparingly soluble (from 30 to 100 parts)
same,Solubility description,"[1]; non-micronized particles, Ethyl acetate, room temperature","Very slightly soluble (from 1000 to 10,000 parts)"
same,Solubility description,"[1]; non-micronized particles, Hexafluoroisopropanol, room temperature",Sparingly soluble (from 30 to 100 parts)
same,Solubility description,"[1]; non-micronized particles, Iso-octane (2,2,4-trimethylpentane), room temperature",Insoluble
same,Solubility description,"[1]; non-micronized particles, Isopropyl acetate, room temperature","Very slightly soluble (from 1000 to 10,000 parts)"
same,Solubility description,"[1]; non-micronized particles, Methanol or acetonitrile acidified with 0.1% formic acid or TFA, room temperature",Sparingly soluble (from 30 to 100 parts)
same,Solubility description,"[1]; non-micronized particles, Methanol, room temperature","Very slightly soluble (from 1000 to 10,000 parts)"
same,Solubility description,"[1]; non-micronized particles, Methyl ethyl ketone, room temperature",Slightly soluble (from 100 to 1000 parts)
same,Solubility description,"[1]; non-micronized particles, N,N-methylpirrolidone, room temperature",Sparingly soluble (from 30 to 100 parts)
same,Solubility description,"[1]; non-micronized particles, Tetrahydrofuran, room temperature",Sparingly soluble (from 30 to 100 parts)
same,Solubility description,"[1]; non-micronized particles, Toluene, room temperature","Very slightly soluble (from 1000 to 10,000 parts)"
same,Solubility description,"[1]; non-micronized particles, Trifluoroethanol, room temperature",Slightly soluble (from 100 to 1000 parts)
same,"Change in the solubility profile, before versus after micronization","[1]; organic solvents, room temperature",no overall significant changes
same,Medium of maximum aqueous solubility,[2],HCl 0.01 (pH 2.0)
same,Aqueous solubility after micronization relative to non-micronized,[2]; HCl 0.01 (pH 2.0),lower
same,Aqueous solubility as a function of pH,"[2]; pH 1.2 to 9.0, both non-micronized and micronized",decreases with the increase of pH
"Cl.NCCc1c[nH]c(=S)n1[C@H]1COc2c(F)cc(F)cc2C1 [Compound 1, (R)-5-(2-Aminoethyl)-1-(6,8-difluorochroman-3-yl)-1,3-dihydroimidazole-2-thione hydrochloride]",Inhibition of dopamine-β-hydroxylase (DβH),[3],potent
same,Toxicity,[4],non-toxic
